# Data taken from ChEMBL document CHEMBL2429768, “Eco-friendly synthesis and antimicrobial activities of substituted-5-(1H-indol-3-yl)methylene)-2,2-dimethyl-1,3-dioxane-4,6-dione derivatives” (2013).
# Experiments:
# Type in all cases: functional
# Klebsiella pneumoniae [1] = assay: Antibacterial activity against Klebsiella pneumoniae at 500 ug/ml after 24 hrs by agar well diffusion method; settings: read-out: DIZ
# Rhizoctonia solani [2] = assay: Antifungal activity against Rhizoctonia solani at 50 ug/ml after 72 hrs by agar well diffusion method; settings: read-out: DIZ
# Aspergillus flavus [3] = assay: Antifungal activity against Aspergillus flavus after 72 hrs by agar well diffusion method
# Aspergillus niger [4] = assay: Antifungal activity against Aspergillus niger after 72 hrs by agar well diffusion method
# Fusarium oxysporum [5] = assay: Antifungal activity against Fusarium oxysporum after 72 hrs by agar well diffusion method
# Escherichia coli [6] = assay: Antibacterial activity against Escherichia coli ATCC 8739 after 24 hrs by agar well diffusion method; settings: ATCC 8739, 24 h
# Aspergillus niger [7] = assay: Antifungal activity against Aspergillus niger at 100 ug/ml after 72 hrs by agar well diffusion method; settings: read-out: DIZ
# Aspergillus flavus [8] = assay: Antifungal activity against Aspergillus flavus at 300 ug/ml after 72 hrs by agar well diffusion method; settings: read-out: DIZ
# Fusarium oxysporum [9] = assay: Antifungal activity against Fusarium oxysporum at 100 ug/ml after 72 hrs by agar well diffusion method; settings: read-out: DIZ
# Aspergillus flavus [10] = assay: Antifungal activity against Aspergillus flavus at 100 ug/ml after 72 hrs by agar well diffusion method; settings: read-out: DIZ
# Bacillus subtilis [11] = assay: Antibacterial activity against Bacillus subtilis at 50 ug/ml after 24 hrs by agar well diffusion method; settings: read-out: DIZ
# Klebsiella pneumoniae [12] = assay: Antibacterial activity against Klebsiella pneumoniae after 24 hrs by agar well diffusion method
# Fusarium oxysporum [13] = assay: Antifungal activity against Fusarium oxysporum at 200 ug/ml after 72 hrs by agar well diffusion method; settings: read-out: DIZ
# Fusarium oxysporum [14] = assay: Antifungal activity against Fusarium oxysporum at 300 ug/ml after 72 hrs by agar well diffusion method; settings: read-out: DIZ
# Escherichia coli [15] = assay: Antibacterial activity against Escherichia coli ATCC 8739 at 500 ug/ml after 24 hrs by agar well diffusion method; settings: ATCC 8739, 24 h, read-out: DIZ
# Bacillus subtilis [16] = assay: Antibacterial activity against Bacillus subtilis at 500 ug/ml after 24 hrs by agar well diffusion method; settings: read-out: DIZ
# Klebsiella pneumoniae [17] = assay: Antibacterial activity against Klebsiella pneumoniae at 200 ug/ml after 24 hrs by agar well diffusion method; settings: read-out: DIZ
# Bacillus subtilis [18] = assay: Antibacterial activity against Bacillus subtilis at 300 ug/ml after 24 hrs by agar well diffusion method; settings: read-out: DIZ
# Aspergillus flavus [19] = assay: Antifungal activity against Aspergillus flavus at 200 ug/ml after 72 hrs by agar well diffusion method; settings: read-out: DIZ
# Aspergillus niger [20] = assay: Antifungal activity against Aspergillus niger at 50 ug/ml after 72 hrs by agar well diffusion method; settings: read-out: DIZ
# Rhizoctonia solani [21] = assay: Antifungal activity against Rhizoctonia solani at 300 ug/ml after 72 hrs by agar well diffusion method; settings: read-out: DIZ
# Klebsiella pneumoniae [22] = assay: Antibacterial activity against Klebsiella pneumoniae at 100 ug/ml after 24 hrs by agar well diffusion method; settings: read-out: DIZ
# Aspergillus niger [23] = assay: Antifungal activity against Aspergillus niger at 500 ug/ml after 72 hrs by agar well diffusion method; settings: read-out: DIZ
# Aspergillus flavus [24] = assay: Antifungal activity against Aspergillus flavus at 500 ug/ml after 72 hrs by agar well diffusion method; settings: read-out: DIZ
# Staphylococcus aureus [25] = assay: Antibacterial activity against Staphylococcus aureus ATCC 6538 at 200 ug/ml after 24 hrs by agar well diffusion method; settings: ATCC 6538, 24 h, read-out: DIZ
# Escherichia coli [26] = assay: Antibacterial activity against Escherichia coli ATCC 8739 at 300 ug/ml after 24 hrs by agar well diffusion method; settings: ATCC 8739, 24 h, read-out: DIZ
# Fusarium oxysporum [27] = assay: Antifungal activity against Fusarium oxysporum at 50 ug/ml after 72 hrs by agar well diffusion method; settings: read-out: DIZ
# Aspergillus flavus [28] = assay: Antifungal activity against Aspergillus flavus at 50 ug/ml after 72 hrs by agar well diffusion method; settings: read-out: DIZ
# Fusarium oxysporum [29] = assay: Antifungal activity against Fusarium oxysporum at 500 ug/ml after 72 hrs by agar well diffusion method; settings: read-out: DIZ
# Staphylococcus aureus [30] = assay: Antibacterial activity against Staphylococcus aureus ATCC 6538 at 500 ug/ml after 24 hrs by agar well diffusion method; settings: ATCC 6538, 24 h, read-out: DIZ
# Escherichia coli [31] = assay: Antibacterial activity against Escherichia coli ATCC 8739 at 200 ug/ml after 24 hrs by agar well diffusion method; settings: ATCC 8739, 24 h, read-out: DIZ
# Bacillus subtilis [32] = assay: Antibacterial activity against Bacillus subtilis at 200 ug/ml after 24 hrs by agar well diffusion method; settings: read-out: DIZ
# Staphylococcus aureus [33] = assay: Antibacterial activity against Staphylococcus aureus ATCC 6538 at 50 ug/ml after 24 hrs by agar well diffusion method; settings: ATCC 6538, 24 h, read-out: DIZ
# Staphylococcus aureus [34] = assay: Antibacterial activity against Staphylococcus aureus ATCC 6538 after 24 hrs by agar well diffusion method; settings: ATCC 6538, 24 h
# Klebsiella pneumoniae [35] = assay: Antibacterial activity against Klebsiella pneumoniae at 300 ug/ml after 24 hrs by agar well diffusion method; settings: read-out: DIZ
# Rhizoctonia solani [36] = assay: Antifungal activity against Rhizoctonia solani at 200 ug/ml after 72 hrs by agar well diffusion method; settings: read-out: DIZ
# Staphylococcus aureus [37] = assay: Antibacterial activity against Staphylococcus aureus ATCC 6538 at 300 ug/ml after 24 hrs by agar well diffusion method; settings: ATCC 6538, 24 h, read-out: DIZ
# Escherichia coli [38] = assay: Antibacterial activity against Escherichia coli ATCC 8739 at 50 ug/ml after 24 hrs by agar well diffusion method; settings: ATCC 8739, 24 h, read-out: DIZ
# Rhizoctonia solani [39] = assay: Antifungal activity against Rhizoctonia solani at 500 ug/ml after 72 hrs by agar well diffusion method; settings: read-out: DIZ
# Bacillus subtilis [40] = assay: Antibacterial activity against Bacillus subtilis after 24 hrs by agar well diffusion method
# Escherichia coli [41] = assay: Antibacterial activity against Escherichia coli ATCC 8739 at 100 ug/ml after 24 hrs by agar well diffusion method; settings: ATCC 8739, 24 h, read-out: DIZ
# Staphylococcus aureus [42] = assay: Antibacterial activity against Staphylococcus aureus ATCC 6538 at 100 ug/ml after 24 hrs by agar well diffusion method; settings: ATCC 6538, 24 h, read-out: DIZ
# Rhizoctonia solani [43] = assay: Antifungal activity against Rhizoctonia solani at 100 ug/ml after 72 hrs by agar well diffusion method; settings: read-out: DIZ
# Aspergillus niger [44] = assay: Antifungal activity against Aspergillus niger at 300 ug/ml after 72 hrs by agar well diffusion method; settings: read-out: DIZ
# Aspergillus niger [45] = assay: Antifungal activity against Aspergillus niger at 200 ug/ml after 72 hrs by agar well diffusion method; settings: read-out: DIZ
# Klebsiella pneumoniae [46] = assay: Antibacterial activity against Klebsiella pneumoniae at 50 ug/ml after 24 hrs by agar well diffusion method; settings: read-out: DIZ
# Rhizoctonia solani [47] = assay: Antifungal activity against Rhizoctonia solani after 72 hrs by agar well diffusion method
# Bacillus subtilis [48] = assay: Antibacterial activity against Bacillus subtilis at 100 ug/ml after 24 hrs by agar well diffusion method; settings: read-out: DIZ
compound,measurement,setting,value
CCn1cc(C=C2C(=O)OC(C)(C)OC2=O)c2cc(Br)ccc21,zone of inhibition at 500 µg/mL,Klebsiella pneumoniae [1],30 mm
same,zone of inhibition at 50 µg/mL,Rhizoctonia solani [2],7 mm
same,MIC,Aspergillus flavus [3],40 µg/mL
same,MIC,Aspergillus niger [4],40 µg/mL
same,MIC,Fusarium oxysporum [5],35 µg/mL
same,MIC,Escherichia coli [6],15 µg/mL
same,zone of inhibition at 100 µg/mL,Aspergillus niger [7],10 mm
same,zone of inhibition at 300 µg/mL,Aspergillus flavus [8],15 mm
same,zone of inhibition at 100 µg/mL,Fusarium oxysporum [9],12 mm
same,zone of inhibition at 100 µg/mL,Aspergillus flavus [10],9 mm
same,zone of inhibition at 50 µg/mL,Bacillus subtilis [11],5 mm
same,MIC,Klebsiella pneumoniae [12],15 µg/mL
same,zone of inhibition at 200 µg/mL,Fusarium oxysporum [13],16 mm
same,zone of inhibition at 300 µg/mL,Fusarium oxysporum [14],21 mm
same,zone of inhibition at 500 µg/mL,Escherichia coli [15],25 mm
same,zone of inhibition at 500 µg/mL,Bacillus subtilis [16],23 mm
same,zone of inhibition at 200 µg/mL,Klebsiella pneumoniae [17],14 mm
same,zone of inhibition at 300 µg/mL,Bacillus subtilis [18],15 mm
same,zone of inhibition at 200 µg/mL,Aspergillus flavus [19],12 mm
same,zone of inhibition at 50 µg/mL,Aspergillus niger [20],6 mm
same,zone of inhibition at 300 µg/mL,Rhizoctonia solani [21],21 mm
same,zone of inhibition at 100 µg/mL,Klebsiella pneumoniae [22],13.4 mm
same,zone of inhibition at 500 µg/mL,Aspergillus niger [23],25 mm
same,zone of inhibition at 500 µg/mL,Aspergillus flavus [24],23 mm
same,zone of inhibition at 200 µg/mL,Staphylococcus aureus [25],11 mm
same,zone of inhibition at 300 µg/mL,Escherichia coli [26],17 mm
same,zone of inhibition at 50 µg/mL,Fusarium oxysporum [27],7 mm
same,zone of inhibition at 50 µg/mL,Aspergillus flavus [28],4 mm
same,zone of inhibition at 500 µg/mL,Fusarium oxysporum [29],29 mm
same,zone of inhibition at 500 µg/mL,Staphylococcus aureus [30],23 mm
same,zone of inhibition at 200 µg/mL,Escherichia coli [31],13 mm
same,zone of inhibition at 200 µg/mL,Bacillus subtilis [32],11 mm
same,zone of inhibition at 50 µg/mL,Staphylococcus aureus [33],5 mm
same,MIC,Staphylococcus aureus [34],25 µg/mL
same,zone of inhibition at 300 µg/mL,Klebsiella pneumoniae [35],21 mm
same,zone of inhibition at 200 µg/mL,Rhizoctonia solani [36],16 mm
same,zone of inhibition at 300 µg/mL,Staphylococcus aureus [37],15 mm
same,zone of inhibition at 50 µg/mL,Escherichia coli [38],6 mm
same,zone of inhibition at 500 µg/mL,Rhizoctonia solani [39],29 mm
same,MIC,Bacillus subtilis [40],30 µg/mL
same,zone of inhibition at 100 µg/mL,Escherichia coli [41],10 mm
same,zone of inhibition at 100 µg/mL,Staphylococcus aureus [42],9.5 mm
same,zone of inhibition at 100 µg/mL,Rhizoctonia solani [43],12 mm
same,zone of inhibition at 300 µg/mL,Aspergillus niger [44],18 mm
same,zone of inhibition at 200 µg/mL,Aspergillus niger [45],14 mm
same,zone of inhibition at 50 µg/mL,Klebsiella pneumoniae [46],8.4 mm
same,MIC,Rhizoctonia solani [47],35 µg/mL
same,zone of inhibition at 100 µg/mL,Bacillus subtilis [48],9.5 mm
